{"source": "paper PMC2866756", "about": "(Antiviral research, 2010)", "key": {"VZV [1]": {"tested_on": "VZV", "assay": "Attempt to isolate roscovitine-resistant VZV by continuous culture", "format": "cell-based, Varicella-zoster virus", "settings": "10 weeks of continuous culture at doses below the EC50, authors' observations"}, "VZV-BAC-Luc [2]": {"tested_on": "VZV-BAC-Luc", "format": "in vivo, Varicella-zoster virus", "settings": "for effect on VZV growth rate in vivo: SCID-Hu mice, dose groups combined, 3 experiments"}, "VZV [3]": {"tested_on": "VZV", "settings": "ref Taylor et al., 2004; cited from earlier work"}, "VZV-BAC-Luc [4]": {"tested_on": "VZV-BAC-Luc", "assay": "Skin organ culture", "format": "cell-based, Varicella-zoster virus", "settings": "for antiviral effects in SOC compared with cultured HFFs: 2 dpi, same concentrations as in HFFs (EC99 doses); for effect on total flux in skin explants: SOC, EC99 doses: 400 μM acyclovir, 1 mM PAA, 1 mM L-mimosine, 50 μM DRB, 20 μM aphidicolin, 20 μM aloisine A, 20 μM purvalanol A, 25 μM roscovitine"}, "[5]": {"assay": "Tolerability in SCID-Hu mice"}, "VZV [6]": {"tested_on": "VZV", "assay": "Antiviral assay, VZV yield by infectious focus", "format": "cell-based, Varicella-zoster virus", "settings": "for Selective Index: cytotoxic dose divided by the EC50 (plaque assay)"}, "skin tissue": {"tested_on": "skin tissue", "settings": "skin organ culture; ref Taylor and Moffat, 2005; cited from earlier work"}, "HFFs": {"tested_on": "HFFs", "settings": "for Cell Growth Arrest Dose: lowest dose for which absorbance at 48 h was the same as at 0 h"}, "VZV [7]": {"tested_on": "VZV", "assay": "Antiviral assay, VZV genome copy number by quantitative PCR", "format": "cell-based, Varicella-zoster virus", "settings": "read-out: VZV EC50 (qPCR)"}, "[8]": {"settings": "0.7 mg/kg/day, s.c. osmotic pump, 7 days"}, "[9]": {"settings": "1.5 mg/kg/day, s.c. osmotic pump, 7 days"}, "[10]": {"settings": "2.8 mg/kg/day, s.c. osmotic pump, 7 days"}, "[11]": {"settings": "4.3 mg/kg/day, s.c. osmotic pump, 7 days"}, "[12]": {"settings": "Human alphaherpesvirus 3, MeWo, 48 h, read-out: VZV EC50 (titer)"}, "[13]": {"settings": "subconfluent HFFs, 48 h, fold change less than 1, * = solubility limit"}, "[14]": {"settings": "read-out: VZV EC50 (titer), HFFs, 48 h, titered on MeWo cells"}, "[15]": {"settings": "HFFs, 48 h, ORF38 copies normalized to β-globin"}}, "note": "Read-outs that look alike come from different tables or passages of the source. Marks after values point to notes of the source that are not given here."}
{"smiles": "CC[C@H](CO)Nc1nc(NCc2ccccc2)c2ncn(C(C)C)c2n1", "note": "(racemic) [Roscovitine (racemic), Roscovitine]", "values": [{"measurement": "isolation of a resistant strain of VZV", "setting": "VZV [1]", "result": "failed"}, {"measurement": "Avg. VZV Growth Rate", "setting": "VZV-BAC-Luc [2]; [8]", "result": 0.13, "unit": "Log10 photons/sec/day"}, {"measurement": "Avg. VZV Growth Rate", "setting": "VZV-BAC-Luc [2]; [9]", "result": 0.12, "unit": "Log10 photons/sec/day"}, {"measurement": "Avg. VZV Growth Rate", "setting": "VZV-BAC-Luc [2]; [10]", "result": 0.24, "unit": "Log10 photons/sec/day"}, {"measurement": "Avg. VZV Growth Rate", "setting": "VZV-BAC-Luc [2]; [11]", "result": 0.26, "unit": "Log10 photons/sec/day"}, {"measurement": "effect on VZV growth rate in vivo", "setting": "VZV-BAC-Luc [2]", "result": "significantly reduced VZV growth rates"}, {"measurement": "reversibility of antiviral effect", "setting": "VZV [3]", "result": "reversible"}, {"measurement": "antiviral effects in SOC compared with cultured HFFs", "setting": "VZV-BAC-Luc [4]", "result": "similar"}, {"measurement": "effect on total flux in skin explants", "setting": "VZV-BAC-Luc [4]", "result": "reduced the total flux"}, {"measurement": "Mortality", "setting": "[5]; [8]", "result": "0/5"}, {"measurement": "ABWD", "setting": "[5]; [9]", "result": "−0.10", "unit": "grams"}, {"measurement": "Mortality", "setting": "[5]; [9]", "result": "0/4"}, {"measurement": "ABWD", "setting": "[5]; [10]", "result": "−1.60", "unit": "grams"}, {"measurement": "Mortality", "setting": "[5]; [10]", "result": "0/7"}, {"measurement": "ABWD", "setting": "[5]; [11]", "result": 0.36, "unit": "grams"}, {"measurement": "Mortality", "setting": "[5]; [11]", "result": "0/5"}, {"measurement": "EC50", "setting": "VZV [6]; [12]", "result": 4, "unit": "µM"}, {"measurement": "cytotoxicity by histopathological analysis of skin tissue", "setting": "skin tissue", "result": "neither DMSO nor roscovitine was cytotoxic"}]}
{"smiles": "Nc1nc2c(ncn2COCCO)c(=O)[nH]1", "note": "[Acyclovir]", "values": [{"measurement": "tolerance in Neutral Red assay", "setting": "HFFs", "result": "tolerated up through the limit of their solubility"}, {"measurement": "Cytotoxic Dose", "setting": "HFFs; human, 48 h", "result": "1.0 × 10^3* μM"}, {"measurement": "EC50", "setting": "VZV [7]; Human alphaherpesvirus 3, 48 h", "result": 5, "unit": "µM"}, {"measurement": "EC50", "setting": "VZV [6]; [12]", "result": 4, "unit": "µM"}]}
{"smiles": "CCCCc1c(-c2ccc(O)cc2)[nH]c2nccnc12", "note": "[Aloisine A]", "values": [{"measurement": "tolerance in Neutral Red assay", "setting": "HFFs; HFFs, culture medium at 37°C", "result": "tolerated up through the limit of their solubility"}, {"measurement": "Cell Growth Arrest Dose", "setting": "HFFs; HFFs", "result": 20, "unit": "µM"}, {"measurement": "antiviral effects in SOC compared with cultured HFFs", "setting": "VZV-BAC-Luc [4]", "result": "much lower"}, {"measurement": "effect on total flux in skin explants", "setting": "VZV-BAC-Luc [4]", "result": "increased"}, {"measurement": "EC50", "setting": "VZV [7]; Human alphaherpesvirus 3, 48 h", "result": 2, "unit": "µM"}, {"measurement": "EC50", "setting": "VZV [6]; [12]", "result": 2.5, "unit": "µM"}, {"measurement": "EC50", "setting": "VZV [6]; Human alphaherpesvirus 3, read-out: EC50 values", "result": "2 to 4", "unit": "µM"}]}
{"smiles": "C[C@@]1(CO)[C@H](O)CC[C@@]2(C)[C@H]1CC[C@H]1C[C@@H]3C[C@@]12CC[C@]3(O)CO", "note": "[Aphidicolin]", "values": [{"measurement": "tolerance in Neutral Red assay", "setting": "HFFs; HFFs, culture medium at 37°C", "result": "tolerated up through the limit of their solubility"}, {"measurement": "antiviral effects in SOC compared with cultured HFFs", "setting": "VZV-BAC-Luc [4]", "result": "similar"}, {"measurement": "effect on total flux in skin explants", "setting": "VZV-BAC-Luc [4]", "result": "reduced the total flux"}, {"measurement": "Selective Index", "setting": "VZV [6]", "result": 833}]}
{"smiles": "C[S+](C)[O-]", "note": "[DMSO, Dimethylsulfoxide]", "values": [{"measurement": "effect on cell growth", "setting": "HFFs; HFFs, 400 mM", "result": "inhibited cell growth slightly"}, {"measurement": "concentration with no effect in Neutral Red assay", "setting": "HFFs; HFFs, 48 h", "result": "up to 150 mM"}, {"measurement": "Cytotoxic Dose", "setting": "HFFs; [13]", "result": ">400000", "unit": "µM"}, {"measurement": "EC50", "setting": "VZV [6]; [14]", "result": 75000, "unit": "µM"}]}
{"smiles": "OC[C@H]1O[C@@H](n2cnc3cc(Cl)c(Cl)cc32)[C@H](O)[C@@H]1O", "note": "[DRB, Dichloro-β-D-ribofurano-sylbenzimidazole]", "values": [{"measurement": "Cell Growth Arrest Dose", "setting": "HFFs; HFFs", "result": 50, "unit": "µM"}, {"measurement": "antiviral effects in SOC compared with cultured HFFs", "setting": "VZV-BAC-Luc [4]", "result": "similar"}, {"measurement": "effect on total flux in skin explants", "setting": "VZV-BAC-Luc [4]", "result": "reduced the total flux"}, {"measurement": "EC50", "setting": "VZV [7]; [15]", "result": 2, "unit": "µM"}, {"measurement": "EC50", "setting": "VZV [6]; [14]", "result": 5, "unit": "µM"}]}
{"smiles": "N[C@@H](Cn1ccc(=O)c(O)c1)C(=O)O", "note": "[L-mimosine]", "values": [{"measurement": "Cell Growth Arrest Dose", "setting": "HFFs; HFFs", "result": 300, "unit": "µM"}, {"measurement": "Cytotoxic Dose", "setting": "HFFs; human, 48 h", "result": 3000, "unit": "µM"}, {"measurement": "antiviral effects in SOC compared with cultured HFFs", "setting": "VZV-BAC-Luc [4]", "result": "similar"}, {"measurement": "effect on total flux in skin explants", "setting": "VZV-BAC-Luc [4]", "result": "reduced the total flux"}, {"measurement": "EC50", "setting": "VZV [7]; Human alphaherpesvirus 3, 48 h", "result": 50, "unit": "µM"}, {"measurement": "EC50", "setting": "VZV [6]; [12]", "result": 70, "unit": "µM"}, {"measurement": "Selective Index", "setting": "VZV [6]", "result": 43}]}
{"smiles": "O=C(O)CP(=O)(O)O", "note": "[Phosphonoacetic acid (PAA), Phosphonoacetic acid]", "values": [{"measurement": "Cytotoxic Dose", "setting": "HFFs; human, 48 h", "result": 15000, "unit": "µM"}, {"measurement": "EC50", "setting": "VZV [7]; Human alphaherpesvirus 3, 48 h", "result": 500, "unit": "µM"}, {"measurement": "EC50", "setting": "VZV [6]; [12]", "result": 300, "unit": "µM"}]}
{"smiles": "CC(C)[C@H](CO)Nc1nc(Nc2cccc(Cl)c2)c2ncn(C(C)C)c2n1", "note": "[Purvalanol A]", "values": [{"measurement": "Cell Growth Arrest Dose", "setting": "HFFs; HFFs", "result": 10, "unit": "µM"}, {"measurement": "Cytotoxic Dose", "setting": "HFFs; [13]", "result": 20, "unit": "µM"}, {"measurement": "Avg. VZV Growth Rate", "setting": "VZV-BAC-Luc [2]; 10 mg/kg/day, daily i.p. injection", "result": 0.37, "unit": "Log10 photons/sec/day"}, {"measurement": "effect on VZV growth rate in vivo", "setting": "VZV-BAC-Luc [2]", "result": "not effective at reducing the rate of VZV growth"}, {"measurement": "effect on VZV growth rate in vivo", "setting": "VZV-BAC-Luc [2]; listed as purvalanol A", "result": "No difference"}, {"measurement": "antiviral effects in SOC compared with cultured HFFs", "setting": "VZV-BAC-Luc [4]", "result": "much lower"}, {"measurement": "effect on total flux in skin explants", "setting": "VZV-BAC-Luc [4]", "result": "increased"}, {"measurement": "ABWD", "setting": "[5]; 20 mg/kg/day, daily i.p. injection", "result": "−2.96", "unit": "grams"}, {"measurement": "tolerability in mice", "setting": "[5]; i.p. injection, 20 or 10 mg/kg/day", "result": "not as well tolerated as roscovitine"}, {"measurement": "Selective Index", "setting": "VZV [6]", "result": 570}]}
{"smiles": "CC[C@H](CO)Nc1nc(NCc2ccccc2)c2ncn(C(C)C)c2n1", "note": "[R-Roscovitine]", "values": [{"measurement": "EC50", "setting": "VZV [7]; Human alphaherpesvirus 3, 48 h", "result": 3, "unit": "µM"}, {"measurement": "EC50", "setting": "VZV [6]; [12]", "result": 3.5, "unit": "µM"}]}
{"smiles": "CC[C@@H](CO)Nc1nc(NCc2ccccc2)c2ncn(C(C)C)c2n1", "note": "[S-Roscovitine]", "values": [{"measurement": "EC50", "setting": "VZV [7]; [15]", "result": 1, "unit": "µM"}, {"measurement": "EC50", "setting": "VZV [6]; [14]", "result": 2.5, "unit": "µM"}]}
{"smiles": "CN[C@@H]1C[C@H]2O[C@@](C)([C@@H]1OC)n1c3ccccc3c3c4c(c5c6ccccc6n2c5c31)C(=O)NC4", "note": "[staurosporine]", "values": [{"measurement": "live cells after treatment", "setting": "HFFs; HFFs, 35 nM, positive control for cell death", "result": "No live cells were detected"}]}
